Results as given in patent US7306804B2 (priority 1998, dated 2007).
“Also recorded” adds a separate entry of the source. Read-outs that look alike come from different tables or passages of the source.

How the values were obtained:
[1] = tested on: HIV envelope protein gp160; conditions: cited from earlier work; for T-cell proliferative response to immunizing peptide and HIV Env protein gp160 / antibodies recognizing recombinant gp160: immunized mice; for T-cell proliferation responses: two F1 hybrid mouse strains (B6C3 F1 and A.SW×Balb/c F1)
[2] = tested on: PBMCs; conditions: cited from earlier work
[3] = tested on: peptide-pulsed autologous EBV-transformed B cells (B-LCL); type: cell-based, human
[4] = tested on: anti-peptide antibodies in serum; type: binding, chimpanzee; design: key: +, Positive (Titer > 1:100); −, Negative (Titer < 1:100)
[5] = tested on: PBMCs from control and HIV-1 infected chimpanzees; type: cell-based, chimpanzee
[6] = tested on: anti-peptide antibodies in serum; type: binding, human; design: key to Anti-peptide antibody response: +, Positive (titer above control); −, Negative (titer below control)
[7] = tested on: PBMCs from normal and HIV-positive individuals; type: cell-based, human; conditions: for number of HIV+ individuals with positive proliferative responses: 17 HIV+ individuals tested

## FLGFLGAAGSTMGAASLTLTVQARQ [Peptide 63]
[1]
  T-cell proliferative response to immunizing peptide and HIV Env protein gp160: induced a T-cell response against both the immunizing peptide and the HIV Env protein; also recorded: induced proliferative responses to both the immunizing peptide
  antibodies recognizing recombinant gp160: did not produce antibodies that could recognize recombinant gp160
  T-cell proliferation responses: relatively good T-cell proliferation responses
[2]; monkey, in vivo
  proliferative response of PBMCs: good response
[3]
  % Specific lysis at various E:T ratios 12.5:1: 0%
  % Specific lysis at various E:T ratios 25:1: 7.9%
  % Specific lysis at various E:T ratios 50:1: 8.8%
  % Specific lysis at various E:T ratios 100:1: 17.6%
  CTL activity against peptide-pulsed autologous B-LCLs: significant CTL activity
  specific lysis of peptide-pulsed target cells: also observed

## GTGPCTNVSTVQC [Peptide 116]
[1]
  T-cell proliferation responses: relatively good T-cell proliferation responses
[2]; monkey, in vivo
  proliferative response of PBMCs: weak responses

## LWDQSLKPCVKLT [Peptide 111]
[1]
  T-cell proliferation responses: relatively good T-cell proliferation responses
[2]; three monkeys immunized with peptide cocktail
  proliferative response of PBMCs: good response

## SVITQACSKVSFE [Peptide 113]
[4]
  Anti-peptide antibody response: −
[1]
  T-cell proliferative response to immunizing peptide and HIV Env protein gp160: induced a T-cell response against both the immunizing peptide and the HIV Env protein; also recorded: induced proliferative responses to both the immunizing peptide
  antibodies recognizing recombinant gp160: did not produce antibodies that could recognize recombinant gp160
  T-cell proliferation responses: relatively good T-cell proliferation responses
[2]; monkey, in vivo
  proliferative response of PBMCs: weak responses
[3]
  % Specific lysis at various E:T ratios 12.5:1: 0%
  % Specific lysis at various E:T ratios 25:1: 0%
  % Specific lysis at various E:T ratios 50:1: 0%
  % Specific lysis at various E:T ratios 100:1: 0%
  CTL activity against peptide-pulsed autologous B-LCLs: did not serve as a CTL epitope
[5]; chimpanzee 40, control normal
  T-cell proliferative response: − (−, Negative (SI < 2.0))
[5]; chimpanzee 62, HIV-infected
  T-cell proliferative response: + (+, Positive (Stimulation Index [SI] > 2.0))
[5]; chimpanzee 69, HIV-infected
  T-cell proliferative response: + (+, Positive (Stimulation Index [SI] > 2.0))
[5]; chimpanzee 73, control normal
  T-cell proliferative response: − (−, Negative (SI < 2.0))
[5]; chimpanzee 80, HIV-infected
  T-cell proliferative response: + (+, Positive (Stimulation Index [SI] > 2.0))
[5]; chimpanzee 99, HIV-infected
  T-cell proliferative response: − (−, Negative (SI < 2.0))
[5]; chimpanzee 100, HIV-infected
  T-cell proliferative response: + (+, Positive (Stimulation Index [SI] > 2.0))
[5]; chimpanzee 139, HIV-infected
  T-cell proliferative response: − (−, Negative (SI < 2.0))
[5]; chimpanzee 175, HIV-infected
  T-cell proliferative response: + (+, Positive (Stimulation Index [SI] > 2.0))
[5]; chimpanzee 247, HIV-infected
  T-cell proliferative response: − (−, Negative (SI < 2.0))
[5]; chimpanzee 310, HIV-infected
  T-cell proliferative response: − (−, Negative (SI < 2.0))
[5]; nine HIV-infected chimpanzees tested
  number of HIV-infected chimpanzees with positive proliferative responses (SI>2.0): five
[6]
  Anti-peptide antibody response: + and −
  number of HIV+ individuals with positive antibody titers (<1:1280): one
[7]
  number of HIV+ individuals with positive proliferative responses: five
[7]; HIV-positive patient MSf
  T-cell proliferative response: − (−, Negative (SI < 2.0))
[7]; HIV-positive patient MSm
  T-cell proliferative response: − (−, Negative (SI < 2.0))
[7]; HIV-positive patient eight
  T-cell proliferative response: − (−, Negative (SI < 2.0))
[7]; HIV-positive patient eleven
  T-cell proliferative response: − (−, Negative (SI < 2.0))
[7]; HIV-positive patient fifteen
  T-cell proliferative response: + (+, Positive (Stimulation Index [SI] > 2.0))
[7]; HIV-positive patient five
  T-cell proliferative response: − (−, Negative (SI < 2.0))
[7]; HIV-positive patient four
  T-cell proliferative response: − (−, Negative (SI < 2.0))
[7]; HIV-positive patient fourteen
  T-cell proliferative response: + (+, Positive (Stimulation Index [SI] > 2.0))
[7]; HIV-positive patient nine
  T-cell proliferative response: − (−, Negative (SI < 2.0))
[7]; HIV-positive patient one
  T-cell proliferative response: − (−, Negative (SI < 2.0))
[7]; HIV-positive patient seven
  T-cell proliferative response: + (+, Positive (Stimulation Index [SI] > 2.0))
[7]; HIV-positive patient six
  T-cell proliferative response: + (+, Positive (Stimulation Index [SI] > 2.0))
[7]; HIV-positive patient ten
  T-cell proliferative response: − (−, Negative (SI < 2.0))
[7]; HIV-positive patient thirteen
  T-cell proliferative response: + (+, Positive (Stimulation Index [SI] > 2.0))
[7]; HIV-positive patient three
  T-cell proliferative response: − (−, Negative (SI < 2.0))
[7]; HIV-positive patient twelve
  T-cell proliferative response: − (−, Negative (SI < 2.0))
[7]; HIV-positive patient two
  T-cell proliferative response: − (−, Negative (SI < 2.0))
[7]; Normal-1 (HIV-seronegative)
  T-cell proliferative response: − (−, Negative (SI < 2.0))
[7]; Normal-2 (HIV-seronegative)
  T-cell proliferative response: − (−, Negative (SI < 2.0))

## YLRDQQLLGIWG [Peptide 120]
[4]
  Anti-peptide antibody response: −
[5]; chimpanzee 40, control normal
  T-cell proliferative response: − (−, Negative (SI < 2.0))
[5]; chimpanzee 62, HIV-infected
  T-cell proliferative response: + (+, Positive (Stimulation Index [SI] > 2.0))
[5]; chimpanzee 69, HIV-infected
  T-cell proliferative response: + (+, Positive (Stimulation Index [SI] > 2.0))
[5]; chimpanzee 73, control normal
  T-cell proliferative response: − (−, Negative (SI < 2.0))
[5]; chimpanzee 80, HIV-infected
  T-cell proliferative response: + (+, Positive (Stimulation Index [SI] > 2.0))
[5]; chimpanzee 99, HIV-infected
  T-cell proliferative response: − (−, Negative (SI < 2.0))
[5]; chimpanzee 100, HIV-infected
  T-cell proliferative response: + (+, Positive (Stimulation Index [SI] > 2.0))
[5]; chimpanzee 139, HIV-infected
  T-cell proliferative response: − (−, Negative (SI < 2.0))
[5]; chimpanzee 175, HIV-infected
  T-cell proliferative response: − (−, Negative (SI < 2.0))
[5]; chimpanzee 247, HIV-infected
  T-cell proliferative response: − (−, Negative (SI < 2.0))
[5]; chimpanzee 310, HIV-infected
  T-cell proliferative response: − (−, Negative (SI < 2.0))
[6]
  Anti-peptide antibody response: − and +
  number of HIV+ individuals with positive antibody titers (<1:1280): two
[7]
  number of HIV+ individuals with positive proliferative responses: five
[7]; HIV-positive patient MSf
  T-cell proliferative response: − (−, Negative (SI < 2.0))
[7]; HIV-positive patient MSm
  T-cell proliferative response: − (−, Negative (SI < 2.0))
[7]; HIV-positive patient eight
  T-cell proliferative response: − (−, Negative (SI < 2.0))
[7]; HIV-positive patient eleven
  T-cell proliferative response: + (+, Positive (Stimulation Index [SI] > 2.0))
[7]; HIV-positive patient fifteen
  T-cell proliferative response: + (+, Positive (Stimulation Index [SI] > 2.0))
[7]; HIV-positive patient five
  T-cell proliferative response: − (−, Negative (SI < 2.0))
[7]; HIV-positive patient four
  T-cell proliferative response: − (−, Negative (SI < 2.0))
[7]; HIV-positive patient fourteen
  T-cell proliferative response: − (−, Negative (SI < 2.0))
[7]; HIV-positive patient nine
  T-cell proliferative response: + (+, Positive (Stimulation Index [SI] > 2.0))
[7]; HIV-positive patient one
  T-cell proliferative response: − (−, Negative (SI < 2.0))
[7]; HIV-positive patient seven
  T-cell proliferative response: + (+, Positive (Stimulation Index [SI] > 2.0))
[7]; HIV-positive patient six
  T-cell proliferative response: + (+, Positive (Stimulation Index [SI] > 2.0))
[7]; HIV-positive patient ten
  T-cell proliferative response: − (−, Negative (SI < 2.0))
[7]; HIV-positive patient thirteen
  T-cell proliferative response: − (−, Negative (SI < 2.0))
[7]; HIV-positive patient three
  T-cell proliferative response: − (−, Negative (SI < 2.0))
[7]; HIV-positive patient twelve
  T-cell proliferative response: − (−, Negative (SI < 2.0))
[7]; HIV-positive patient two
  T-cell proliferative response: − (−, Negative (SI < 2.0))
[7]; Normal-1 (HIV-seronegative)
  T-cell proliferative response: − (−, Negative (SI < 2.0))
[7]; Normal-2 (HIV-seronegative)
  T-cell proliferative response: − (−, Negative (SI < 2.0))

## YLRDQQLLGIWGC [Peptide 61]
[1]
  T-cell proliferative response to immunizing peptide and HIV Env protein gp160: induced a T-cell response against both the immunizing peptide and the HIV Env protein
  antibodies recognizing recombinant gp160: did not produce antibodies that could recognize recombinant gp160
  T-cell proliferation responses: relatively good T-cell proliferation responses
[2]; monkey, in vivo
  proliferative response of PBMCs: PMBCs from two of the monkeys showed good proliferative responses
[3]
  % Specific lysis at various E:T ratios 12.5:1: 4.0%
  % Specific lysis at various E:T ratios 25:1: 4.0%
  % Specific lysis at various E:T ratios 50:1: 14.5%
  % Specific lysis at various E:T ratios 100:1: 15.0%
  CTL activity against peptide-pulsed autologous B-LCLs: significant CTL activity
  specific lysis of peptide-pulsed target cells: also observed
